Source: PubChem BioAssay (NCI)
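Here, GI50 denotes the concentration required for 50% inhibition of growth. TGI: total growth inhibition.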

Assays:
Assay in all cases: NCI tumour cell line growth inhibition, 384-well format
[1] = system: HCT-15 colon
[2] = system: NCI-H460 NSCLC
[3] = system: SF-295 CNS
[4] = system: M14 melanoma
[5] = system: HOP-62 NSCLC
[6] = system: NCI-H23 lung
[7] = system: BT-549 breast
[8] = system: SF-268 CNS
[9] = system: MCF7 breast
[10] = system: UACC-62 melanoma
[11] = system: KM12 colon
[12] = system: EKVX NSCLC
[13] = system: MALME-3M melanoma
[14] = system: SNB-75 CNS
[15] = system: T-47D breast
[16] = system: OVCAR-5 ovarian
[17] = system: MDA-MB-468 breast
[18] = system: LOX IMVI melanoma
[19] = system: IGROV1 ovarian
[20] = system: OVCAR-8 ovarian
[21] = system: SR leukemia
[22] = system: MOLT-4 leukemia
[23] = system: SN12C renal
[24] = system: HOP-92 NSCLC
[25] = system: A498 renal
[26] = system: PC-3 prostate
[27] = system: A549 NSCLC

Cc1c(Cn2c(C)nc3c(C(=O)O)cc(N4CCOCC4)cc32)cccc1C(F)(F)F
GI50 [1]: 3.97 µM | TGI [1]: > 100 µM | GI50 [2]: 33.9 µM | TGI [2]: > 100 µM | GI50 [3]: 22.2 µM | TGI [3]: > 100 µM | GI50 [4]: 30.1 µM | TGI [4]: > 100 µM | GI50 [5]: 24.5 µM | TGI [5]: > 100 µM | GI50 [6]: 85.8 µM | TGI [6]: > 100 µM | GI50 [7]: 67.4 µM | TGI [7]: > 100 µM | GI50 [8]: 70.6 µM | TGI [8]: > 100 µM | GI50 [9]: 59.9 µM | TGI [9]: > 100 µM | GI50 [10]: 75.8 µM | TGI [10]: > 100 µM | GI50 [11]: 73 µM | TGI [11]: > 100 µM | GI50 [12]: 58.1 µM | TGI [12]: > 100 µM | GI50 [13]: > 100 µM | TGI [13]: > 100 µM | GI50 [14]: 63.4 µM | TGI [14]: > 100 µM | GI50 [15]: > 100 µM | TGI [15]: > 100 µM | GI50 [16]: 52.4 µM | TGI [16]: > 100 µM | GI50 [17]: 49.2 µM | TGI [17]: > 100 µM | GI50 [18]: 33.1 µM | TGI [18]: > 100 µM | GI50 [19]: 64.4 µM | TGI [19]: > 100 µM | GI50 [20]: 44.1 µM | TGI [20]: > 100 µM | GI50 [21]: 18.5 µM | TGI [21]: 40.8 µM | GI50 [22]: 19.6 µM | TGI [22]: 41.4 µM | GI50 [23]: 30.6 µM | TGI [23]: > 100 µM | GI50 [24]: 72.7 µM | TGI [24]: > 100 µM | GI50 [25]: 0.462 µM | TGI [25]: 8.29 µM | GI50 [26]: 26.9 µM | TGI [26]: > 100 µM | GI50 [27]: 62.1 µM | TGI [27]: > 100 µM
